Measurements published in PubChem BioAssay AID2060884 (Molecular Pharmacology Branch, DTP, NCI, 2025).

System: NCI-H929 complex spheroids, viability % test/control
Experiment: Anticancer human tumor NCI-H929 cell line growth inhibition [RAS];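 note: compound exposure lasted seven days before viability was read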;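 for viability, T/C: 100% = DMSO vehicle control viability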
Conditions: for viability, T/C: stronger effect = lower value
In short: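 Multi-cell-type spheroids: tumor cells plus HUVEC endothelial cells and mesenchymal stem cells. RAS-pathway inhibitors were combined with targeted agents, each dosed in half-log steps down from clinical Cmax, or from 10 microM when Cmax was unknown.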

[1] = curve of first compound, second compound 0.000949 µM
[2] = curve of first compound, second compound 0.003 µM
[3] = curve of first compound, second compound 0.00949 µM
[4] = curve of first compound, second compound 0.03 µM
[5] = curve of first compound, second compound 0.0949 µM
[6] = curve of first compound, second compound 0.3 µM
[7] = second compound 0.000949 µM, first compound 0.0316 µM
[8] = second compound 0.000949 µM, first compound 0.1 µM
[9] = second compound 0.000949 µM, first compound 0.316 µM
[10] = second compound 0.000949 µM, first compound 1 µM
[11] = second compound 0.000949 µM, first compound 3.16 µM
[12] = second compound 0.000949 µM, first compound 10 µM
[13] = second compound 0.003 µM, first compound 0.0316 µM
[14] = second compound 0.003 µM, first compound 0.1 µM
[15] = second compound 0.003 µM, first compound 0.316 µM
[16] = second compound 0.003 µM, first compound 1 µM
[17] = second compound 0.003 µM, first compound 3.16 µM
[18] = second compound 0.003 µM, first compound 10 µM
[19] = second compound 0.00949 µM, first compound 0.0316 µM
[20] = second compound 0.00949 µM, first compound 0.1 µM
[21] = second compound 0.00949 µM, first compound 0.316 µM
[22] = second compound 0.00949 µM, first compound 1 µM
[23] = second compound 0.00949 µM, first compound 3.16 µM
[24] = second compound 0.00949 µM, first compound 10 µM
[25] = second compound 0.03 µM, first compound 0.0316 µM
[26] = second compound 0.03 µM, first compound 0.1 µM
[27] = second compound 0.03 µM, first compound 0.316 µM
[28] = second compound 0.03 µM, first compound 1 µM
[29] = second compound 0.03 µM, first compound 3.16 µM
[30] = second compound 0.03 µM, first compound 10 µM
[31] = second compound 0.0949 µM, first compound 0.0316 µM
[32] = second compound 0.0949 µM, first compound 0.1 µM
[33] = second compound 0.0949 µM, first compound 0.316 µM
[34] = second compound 0.0949 µM, first compound 1 µM
[35] = second compound 0.0949 µM, first compound 3.16 µM
[36] = second compound 0.0949 µM, first compound 10 µM
[37] = second compound 0.3 µM, first compound 0.0316 µM
[38] = second compound 0.3 µM, first compound 0.1 µM
[39] = second compound 0.3 µM, first compound 0.316 µM
[40] = second compound 0.3 µM, first compound 1 µM
[41] = second compound 0.3 µM, first compound 3.16 µM
[42] = second compound 0.3 µM, first compound 10 µM

CCC(CC)c1cc(NC2CCC(N)C2)n2nccc2n1 (stereo not given) + CCn1c(-c2cc(N3CCN(C)CC3)cnc2C(C)OC)c2c3cc(ccc31)-c1csc(n1)CC(NC(=O)C1CC1C)C(=O)N1CCCC(N1)C(=O)OCC(C)(C)C2 gave an IC50 [1] of 1430 nM, an IC50 [2] of 1620 nM and an IC50 [3] of 738 nM. The IC50 [4] was < 31.6 nM, the IC50 [5] was < 31.6 nM and the IC50 [6] was < 31.6 nM. The viability, T/C [7] was 104%, the viability, T/C [8] was 94.4% and the viability, T/C [9] was 101%. The viability, T/C [10] was 72.3%, the viability, T/C [11] was 0.36% and the viability, T/C [12] was 0.25%. It also gave a viability, T/C [13] of 96.1%, a viability, T/C [14] of 93.5% and a viability, T/C [15] of 102%. For the same compound, the viability, T/C [16] was 85.8%, the viability, T/C [17] was 0.43% and the viability, T/C [18] was 0.14%. The viability, T/C [19] was 114%, the viability, T/C [20] was 117% and the viability, T/C [21] was 115%. The viability, T/C [22] was 26.6%, the viability, T/C [23] was 0.16% and the viability, T/C [24] was 0.13%. The viability, T/C [25] was 36.7%, the viability, T/C [26] was 34.9% and the viability, T/C [27] was 49.8%. It also gave a viability, T/C [28] of 2.49%, a viability, T/C [29] of 0.12% and a viability, T/C [30] of 0.1%. The viability, T/C [31] was 6.21%, the viability, T/C [32] was 6.5% and the viability, T/C [33] was 6.35%. The viability, T/C [34] was 0.97%, the viability, T/C [35] was 0.11% and the viability, T/C [36] was 0.09%. It also gave a viability, T/C [37] of 4.59%, a viability, T/C [38] of 3.76% and a viability, T/C [39] of 2.94%. It also gave a viability, T/C [40] of 1.37%, a viability, T/C [41] of 0.14% and a viability, T/C [42] of 0.12%.
In the case of Cc1nc(N2CCC3(CC2)COC(C)C3N)c(CO)nc1Sc1ccnc(N)c1Cl (stereo not given) + CCn1c(-c2cccnc2C(C)OC)c2c3cc(ccc31)N1CCOC(CC(NC(=O)C(C(C)C)N(C)C(=O)C3(F)CCN(C(=O)C#CC(C)(C)N(C)C)CC3)C(=O)N3CCCC(N3)C(=O)OCC(C)(C)C2)C1, the IC50 [1] is reported as > 10000 nM, the IC50 [2] is reported as > 10000 nM and the IC50 [3] is reported as > 10000 nM. The IC50 [4] was > 10000 nM, the IC50 [5] was > 10000 nM and the IC50 [6] was > 10000 nM. The viability, T/C [7] was 108%, the viability, T/C [8] was 99.1% and the viability, T/C [9] was 102%. For the same compound, the viability, T/C [10] was 102%, the viability, T/C [11] was 102% and the viability, T/C [12] was 97.8%. The viability, T/C [13] was 103%, the viability, T/C [14] was 105% and the viability, T/C [15] was 102%. It also gave a viability, T/C [16] of 101%, a viability, T/C [17] of 103% and a viability, T/C [18] of 99.5%. For the same compound, the viability, T/C [19] was 102%, the viability, T/C [20] was 101% and the viability, T/C [21] was 108%. For the same compound, the viability, T/C [22] was 100%, the viability, T/C [23] was 104% and the viability, T/C [24] was 102%. For the same compound, the viability, T/C [25] was 99.4%, the viability, T/C [26] was 103% and the viability, T/C [27] was 103%. The viability, T/C [28] was 99.8%, the viability, T/C [29] was 106% and the viability, T/C [30] was 104%. For the same compound, the viability, T/C [31] was 104%, the viability, T/C [32] was 97.1% and the viability, T/C [33] was 98.2%. The viability, T/C [34] was 101%, the viability, T/C [35] was 98.2% and the viability, T/C [36] was 95.7%. It also gave a viability, T/C [37] of 102%, a viability, T/C [38] of 103% and a viability, T/C [39] of 101%. For the same compound, the viability, T/C [40] was 99.7%, the viability, T/C [41] was 98.2% and the viability, T/C [42] was 95.5%.
For CCn1c(-c2cccnc2C(C)OC)c2c3cc(ccc31)N1CCOC(CC(NC(=O)C(C(C)C)N(C)C(=O)C3(F)CCN(C(=O)C#CC(C)(C)N(C)C)CC3)C(=O)N3CCCC(N3)C(=O)OCC(C)(C)C2)C1 (stereo not given), the viability, T/C (compound 0.000949 µM) was 107% [middle of 8 runs], the viability, T/C (compound 0.003 µM) was 106% [middle of 8 runs] and the viability, T/C (compound 0.00949 µM) was 106% [middle of 8 runs]. The viability, T/C (compound 0.03 µM) was 104% [middle of 8 runs], the viability, T/C (compound 0.0949 µM) was 99.9% [middle of 8 runs] and the viability, T/C (compound 0.3 µM) was 98.9% [middle of 8 runs]. The IC50 (compound alone, run of 08/20/2024) was > 300 nM.
For CCC(CC)c1cc(NC2CCC(N)C2)n2nccc2n1 (stereo not given) + CCn1c(-c2cccnc2C(C)OC)c2c3cc(ccc31)N1CCOC(CC(NC(=O)C(C(C)C)N(C)C(=O)C3(F)CCN(C(=O)C#CC(C)(C)N(C)C)CC3)C(=O)N3CCCC(N3)C(=O)OCC(C)(C)C2)C1, the IC50 [1] was 1540 nM, the IC50 [2] was 1570 nM and the IC50 [3] was 1540 nM. For the same compound, the IC50 [4] was 1340 nM, the IC50 [5] was 1400 nM and the IC50 [6] was 1110 nM. The viability, T/C [7] was 102%, the viability, T/C [8] was 92.6% and the viability, T/C [9] was 92.5%. The viability, T/C [10] was 79.5%, the viability, T/C [11] was 0.2% and the viability, T/C [12] was 0.2%. For the same compound, the viability, T/C [13] was 100%, the viability, T/C [14] was 98.8% and the viability, T/C [15] was 93.5%. For the same compound, the viability, T/C [16] was 82.1%, the viability, T/C [17] was 0.2% and the viability, T/C [18] was 0.19%. It also gave a viability, T/C [19] of 102%, a viability, T/C [20] of 96.5% and a viability, T/C [21] of 92.5%. For the same compound, the viability, T/C [22] was 80.1%, the viability, T/C [23] was 0.2% and the viability, T/C [24] was 0.18%. It also gave a viability, T/C [25] of 97.3%, a viability, T/C [26] of 93.8% and a viability, T/C [27] of 93.5%. For the same compound, the viability, T/C [28] was 67%, the viability, T/C [29] was 0.19% and the viability, T/C [30] was 0.2%. It also gave a viability, T/C [31] of 98.1%, a viability, T/C [32] of 96.4% and a viability, T/C [33] of 89.2%. For the same compound, the viability, T/C [34] was 70.4%, the viability, T/C [35] was 0.22% and the viability, T/C [36] was 0.22%. The viability, T/C [37] was 102%, the viability, T/C [38] was 96.7% and the viability, T/C [39] was 94.3%. It also gave a viability, T/C [40] of 55.1%, a viability, T/C [41] of 0.25% and a viability, T/C [42] of 0.22%.
In the case of C[C@@H](NC(=O)c1ncnc(N)c1Cl)c1ncc(C(=O)Nc2cc(C(F)(F)F)c(Cl)cn2)s1 + CCn1c(-c2cc(N3CCN(C)CC3)cnc2C(C)OC)c2c3cc(ccc31)-c1csc(n1)CC(NC(=O)C1CC1C)C(=O)N1CCCC(N1)C(=O)OCC(C)(C)C2, the IC50 [1] is reported as > 10000 nM, the IC50 [2] is reported as > 10000 nM and the IC50 [3] is reported as > 10000 nM. For the same compound, the IC50 [4] was > 10000 nM, the IC50 [5] was < 31.6 nM and the IC50 [6] was < 31.6 nM. It also gave a viability, T/C [7] of 104%, a viability, T/C [8] of 100% and a viability, T/C [9] of 102%. It also gave a viability, T/C [10] of 98.9%, a viability, T/C [11] of 104% and a viability, T/C [12] of 112%. It also gave a viability, T/C [13] of 95.8%, a viability, T/C [14] of 99.7% and a viability, T/C [15] of 103%. It also gave a viability, T/C [16] of 101%, a viability, T/C [17] of 105% and a viability, T/C [18] of 114%. The viability, T/C [19] was 91.8%, the viability, T/C [20] was 104% and the viability, T/C [21] was 107%. For the same compound, the viability, T/C [22] was 111%, the viability, T/C [23] was 111% and the viability, T/C [24] was 115%. The viability, T/C [25] was 114%, the viability, T/C [26] was 121% and the viability, T/C [27] was 120%. The viability, T/C [28] was 119%, the viability, T/C [29] was 115% and the viability, T/C [30] was 89.2%. The viability, T/C [31] was 19.9%, the viability, T/C [32] was 28.3% and the viability, T/C [33] was 35.9%. For the same compound, the viability, T/C [34] was 43.4%, the viability, T/C [35] was 45.6% and the viability, T/C [36] was 18.5%. The viability, T/C [37] was 6.79%, the viability, T/C [38] was 9.47% and the viability, T/C [39] was 9.99%. The viability, T/C [40] was 13.3%, the viability, T/C [41] was 14.1% and the viability, T/C [42] was 8.3%.
